US10968232B2 (Merck Sharp & Dohme Corp., priority 2016, dated 2021)

Biological target: T1, human GPR40 (Homo sapiens, UniProt O14842)
T1 construct: expressed in transfected cells
Experiment: Inositol Phosphate Turnover (IP1) Assay
Type: cell-based
Details: HEK cells stably expressing human GPR40; CisBio IP-One kit; 60 minutes at 37 degrees; read-out: Human IP1 EC50
Procedure: Human GPR40 stable cell-lines were generated in HEK cells. The expression plasmids were transfected using lipofectamine (Life Technologies) following manufacturer's instructions. Stable cell-lines were generated following drug selection and single cell cloning. The assay was performed in 384-well format. HEK cells stably expressing human GPR40 were plated at 7500 cells per well in growth medium (DMEM/10% fetal calf serum). Cell plates were then incubated 16 hours at 37 degrees in a 5% CO2 incubator. Measurement of Inositol Phosphate Turnover (IP1) was performed using the CisBio IP-One kit (Part number 62IPAPEB). After the 16 hour incubation, the growth media was removed by centrifugation using the BlueWasher (AusWasher GUI Ver. v1.0.1.8) Protocol #21-“Light Dry” and 10 ul of stimulation buffer (prepared as described in the kit) was added to each well. In a separate plate, compounds were diluted in DMSO (200-fold over the final concentration in the assay well) and 50 nl was acoustically transferred to the appropriate well in the assay cell plate. The plates were then incubated for 60 minutes at 37 degrees in a 5% CO2 incubator. 10 ul of detection buffer (also prepared as described in the IP-One kit) was added to each well and the plates were incubated at room temperature for 60 minutes in the dark. The plates were then read in a Perkin Elmer EnVision or equivalent reader able to measure FRET. […] Data was normalized to % activity using a reference compound and EC50s determined using a standard 4-parameter fit.

T1 sequence (O14842 whole entry): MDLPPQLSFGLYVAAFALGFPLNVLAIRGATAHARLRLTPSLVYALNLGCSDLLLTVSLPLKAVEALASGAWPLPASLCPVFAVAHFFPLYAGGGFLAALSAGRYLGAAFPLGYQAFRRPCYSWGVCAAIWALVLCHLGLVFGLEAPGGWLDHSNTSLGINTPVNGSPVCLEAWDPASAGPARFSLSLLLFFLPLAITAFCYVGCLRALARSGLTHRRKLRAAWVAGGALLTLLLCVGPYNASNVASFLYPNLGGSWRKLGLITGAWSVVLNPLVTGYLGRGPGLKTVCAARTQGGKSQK

SMILES	EC50 [nM]
Cc1ccc(-c2ccc(OC(F)(F)F)c(C(C)N3CCC4(CCc5ccc([C@H](C6CC6)[C@H](C)C(=O)O)cc5O4)CC3)c2)o1 (mixture of isomers) [Example 122, (2S,3R)-3-cyclopropyl-2-methyl-3-(1′-((RS)-1-(5-(5-methylfuran-2-yl)-2-(trifluoromethoxy)phenyl)eth-yl)spiro[chroman-2,4′-piperidin]-7-yl)propanoic acid]	42.5
COc1ccc(C(F)(F)F)c(C(C)N2CCC3(CCc4ccc([C@H](C5CC5)[C@H](C)C(=O)O)cc4O3)CC2)n1 (single isomer, unassigned) [Example 104, sodium (2S,3R)-3-cyclopropyl-3-(1′-((R or S)-1-(6-methoxy-3-(trifluoromethyl)pyridin-2-yl)ethyl)spiro[chroman-2,4′-piperidin]-7-yl)-2-methylpropanoate]	59.8
CC(c1cc(C2CC2)ccc1OC(F)(F)F)N1CCC2(CCc3ccc([C@H](C4CC4)[C@H](C)C(=O)O)cc3O2)CC1 (stereo partly drawn) [Example 111, (2S,3R)-3-cyclopropyl-3-(1′-(1-(5-cyclopropyl-2-(trifluoromethoxy)phenyl)ethyl)spiro[chroman-2,4′-piperidin]-7-yl)-2-methylpropanoic Acid]	20.2
C[C@H](C(=O)O)[C@H](c1ccc2c(c1)OC1(CC2)CCN(c2cccc(C(F)(F)F)c2)CC1)C1CC1 [Example 41, (2S,3R)-3-cyclopropyl-2-methyl-3-(1′-(3-(trifluoromethyl)phenyl)spiro[chroman-2,4′-piperidin]-7-yl)propanoic acid]	12.9
C[C@H](C(=O)O)[C@H](c1ccc2c(c1)OC1(CC2)CCN(c2ccc3c(c2)c(C(F)(F)F)nn3C)CC1)C1CC1 [Example 38, (2S,3R)-3-cyclopropyl-2-methyl-3-(1′-(1-methyl-3-(trifluoromethyl)-1H-indazol-5-yl)spiro[chroman-2,4′-piperidin]-7-yl)propanoic acid]	506
C[C@H](C(=O)O)[C@H](c1ccc2c(c1)OC1(CC2)CC(Nc2ncccc2C(F)(F)F)C1)C1CC1 (single isomer, unassigned) [Example 88]	57
C[C@H](NC1CC2(CCc3ccc([C@H](C4CC4)[C@H](C)C(=O)O)cc3O2)C1)c1cc(C(F)(F)F)ccc1C(F)(F)F (single isomer, unassigned) [Example 92]	24.6
C[C@H](C(=O)O)[C@H](c1ccc2c(c1)OC1(CCCN(Cc3cc(C(F)(F)F)ccc3C(F)(F)F)CC1)CC2)C1CC1 (single isomer, unassigned) [Example 47, (2S,3R)-3-((R or S)-1-(2,5-bis(trifluoromethyl)benzyl)spiro[azepane-4,2′-chroman]-7′-yl)-3-cyclopropyl-2-methylpropanoic Acid]	2.64
CC(c1cc(C(F)(F)F)ccc1C1CC1)N1CCC2(CCc3ccc([C@H](C4CC4)[C@H](C)C(=O)O)c(F)c3O2)CC1 (single isomer, unassigned) [Example 14, sodium (2S,3R)-3-cyclo-propyl-3-(1′-((S or R)-1-(2-cyclopropyl-5-(trifluoromethyl)phenyl)-ethyl)-8-fluorospiro [chroman-2,4′-piperidin]-7-yl)-2-methylpropanoate]	36.3
C[C@H](C(=O)O)[C@H](c1ccc2c(c1)OC1(CCCN([C@H](C)c3cc(C(F)(F)F)ccc3C(F)(F)F)C1)CC2)C1CC1 (single isomer, unassigned) [Example 73, (2S,3R)-3-((R or S)-1′-((R)-1-(2,5-bis(trifluoromethyl)phenyl)ethyl)spiro-[chroman-2,3′-piperidin]-7-yl)-3-cyclopropyl-2-methylpropanoic Acid]	186
C[C@H](C(=O)O)[C@H](c1ccc2c(c1)OC1(CC2)CC(N(C)Cc2cc(C(F)(F)F)ccc2C(F)(F)F)C1)C1CC1 (single isomer, unassigned) [Example 97]	16.2
C[C@H](C(=O)O)[C@H](c1ccc2c(c1F)OC1(CC2)CCN(Cc2cc(F)ccc2OC(F)(F)F)CC1)C1CC1 [Example 3, (2S,3R)-3-cyclopropyl-3-(8-fluoro-1′-(5-fluoro-2-(trifluoromethoxy)-benzyl)spiro[chroman-2,4′-piperidin]-7-yl)-2-methylpropanoic acid]	11.7
C[C@H](C(=O)O)[C@H](c1ccc2c(c1)OC1(CC2)CCN([C@@H](C)c2cc(F)ccc2OC(F)(F)F)CC1)C1CC1 [Example 132, Sodium (2S,3R)-3-cyclopropyl-3-(1′-((S)-1-(5-fluoro-2-(trifluoromethoxy)phenyl)ethyl)spiro[chromane-2,4′-piperidin]-7-yl)-2-methylpropanoate]	11.2
CC(c1nc(C(F)(F)F)ccc1Cl)N1CCC2(CCc3ccc([C@H](C4CC4)[C@H](C)C(=O)O)cc3O2)CC1 (single isomer, unassigned) [Example 31]	49.9
CCC(c1cc(Cl)ccc1OC(F)(F)F)N1CCC2(CCc3ccc([C@H](C4CC4)[C@H](C)C(=O)O)cc3O2)CC1 (stereo partly drawn) [Example 110, (2S,3R)-3-(1′-(1-(5-chloro-2-(trifluoromethoxy)phenyl)propyl)spiro[chroman-2,4′-piperidin]-7-yl)-3-cyclopropyl-2-methylpropanoic Acid]	0.812
C[C@H](C(=O)O)[C@H](c1ccc2c(c1)OC1(CC2)CC(N(C)c2ncccc2C(F)(F)F)C1)C1CC1 (stereo partly drawn) [Example 89, (2S,3R)-3-cyclopropyl-2-methyl-3-(3′-(methyl(3-(trifluoromethyl)pyridin-2-yl)amino)spiro[chroman-2,1′-cyclobutan]-7-yl)propanoic Acid]	13.1
C[C@H](C(=O)O)[C@H](c1ccc2c(c1F)OC1(CC2)CCN([C@H](C)c2cc(C(F)(F)F)ccc2C(F)(F)F)CC1)C1CC1 [Example 6, (2S,3R)-3-(1′-((R)-1-(2,5-bis(trifluoromethyl)-phenyl)ethyl)-8-fluoro-spiro[chroman-2,4′-piperidin]-7-yl)-3-cyclo-propyl-2-methyl-propanoic acid]	12.1
CC(c1cc(Cl)ccc1OC(F)F)N1CCC2(CCc3ccc([C@H](C4CC4)[C@H](C)C(=O)O)c(F)c3O2)CC1 (single isomer, unassigned) [Example 33, (2S,3R)-3-(1′-((R or S)-1-(5-chloro-2-(difluoromethoxy)phenyl)ethyl)-8-fluorospiro-[chroman-2,4′-piperidin]-7-yl)-3-cyclopropyl-2-methylpropanoic Acid]	50
CCCn1cc(-c2ccc(OC(F)(F)F)c(C(C)N3CCC4(CCc5ccc([C@H](C6CC6)[C@H](C)C(=O)O)cc5O4)CC3)c2)cn1 (single isomer, unassigned) [Example 113, sodium (2S,3R)-3-cyclopropyl-2-methyl-3-(1′-S or R)-1-(5-(1-propyl-1H-pyrazol-4-yl)-2-(trifluoromethoxy)phenyl)eth-yl)spiro[chroman-2,4′-piperidin]-7-yl)propanoate]	579
CC(c1cc(C(F)(F)F)ccc1C1CC1)N1CCC2(CCc3ccc([C@H](C4CC4)[C@H](C)C(=O)O)c(F)c3O2)CC1 (single isomer, unassigned) [Example 11, sodium (2S,3R)-3-cyclopropyl-3-(1′-((R or S)-1-(2-cyclopropyl-5-(trifluoromethyl)-phenyl)ethyl)-8-fluorospiro[chroman-2,4′-piperidin]-7-yl)-2-methylpropanoate]	0.434
C[C@H](C(=O)O)[C@H](c1ccc2c(c1)OC1(CC2)CC(N(C)[C@@H](C)c2cc(C(F)(F)F)ccc2C(F)(F)F)C1)C1CC1 (stereo partly drawn) [Example 100, (2S,3R)-3-(3′-(((S)-1-(2,5-bis(trifluoro-methyl)phenyl)ethyl)(meth-yl)amino)spiro[chro-man-2,1′-cyclobutan]-7-yl)-3-cyclopropyl-2-methylpropanic acid]	4.19
C[C@H](C(=O)O)[C@H](c1ccc2c(c1)OC1(CCCN([C@@H](C)c3cc(C(F)(F)F)ccc3C(F)(F)F)CC1)CC2)C1CC1 (single isomer, unassigned) [Example 52, (2S,3R)-3-((S or R)-1-((S)-1-(2,5-bis (trifluoromethyl)phenyl)ethyl)spiro[azepane-4,2′-chroman]-7′-yl)-3-cyclopropyl-2-methylpropanoic acid]	2.66
C[C@H](NC1CC2(CCc3ccc([C@H](C4CC4)[C@H](C)C(=O)O)cc3O2)C1)c1cc(C(F)(F)F)ccc1C(F)(F)F (single isomer, unassigned) [Example 94]	2.62
C[C@H](C(=O)O)[C@H](c1ccc2c(c1)OC1(CC2)CCN([C@@H](C)c2nccnc2C(F)(F)F)CC1)C1CC1 (mixture of isomers) [Example 125, (2S,3R)-3-cyclopropyl-2-methyl-3-(1′-((RS)-1-(3-(trifluoromethyl)pyrazin-2-yl)ethyl)spiro[chroman-2,4′-piperidin]-7-yl)propanoic Acid]	415
C[C@H](C(=O)O)[C@H](c1ccc2c(c1)OC1(CC2)CC(NCc2cc(C(F)(F)F)ccc2C(F)(F)F)C1)C1CC1 (single isomer, unassigned) [Example 96]	12.3
